*1 amine or outer side, *2 acyl side, *3 side chain or, on linkers, in order; H or OH if unused. Where a SMILES comes first, the peptide text is derived from it. The star is where a group is joined. AMC = Cc1cc(=O)oc2cc(N*)ccc12; Suc = O=C(CCC(=O)[*:2])[*:1]; MeOSuc = COC(=O)CCC(=O)*
Legend:
[1] = test system: human chymotrypsin (Chtr); experiment: Km of chymotrypsin for its fluorogenic substrate (used for ka correction, eq 2); assay type: biochemical; conditions: substrate Suc-AAPF-AMC, kinetics in 50 mM Tris pH 7.5, 150 mM NaCl, 0.05% Triton X-100, 0.01% BSA, 25° C.
Source text: (§1) hK2 and hK3 (PSA) were purified from human semen as previously described (Frenette G, Gervais Y, Tremblay R R, Dube J Y. 1998 “Contamination of purified prostate-specific antigen preparations by kallikrein hK2” J Urol 159, 1375-8), anti-hK2 and anti-PSA monoclonal antibodies were a gift from Professor R R Tremblay, Laval University, Canada. Human chymotrypsin (Chtr), urokinase plasminogen activator (uPA), human kallikrein hK1, human plasma kallikrein (PK), human neutrophil elastase (HNE) and commercial ACT (human plasma α1-antichymotrypsin) were purchased from Calbiochem. […]
(§2) The association rate constants for interactions of hK2, chymotrypsin, PK and HNE with different rACTs were determined under pseudo-first order conditions using the progress curve method (Morrison J F, Walsh C T. 1988 “The behavior and significance of slow-binding enzyme inhibitors” Adv. Enzymol. Relat. Areas Mol. Biol 61, 201-301). […] Each reaction was made in reaction buffer (50 mM Tris pH 7.5, 150 mM NaCl, 0.05% Triton X-100, 0.01% BSA) at 25° C. for 45 min and the rate of product formation was measured using a FLx800 fluorescence 96-well microplate reader (Biotek, USA). […]
(§3) For each inhibitor, a kobs was calculated, for four different concentrations of inhibitors, by non linear regression of the data using equation 1. […]

[2] = molecular target: T1, human neutrophil elastase (HNE) (Homo sapiens, UniProt P08246); experiment: Km of HNE for its fluorogenic substrate (used for ka correction, eq 2); assay type: biochemical; conditions: substrate MeOSuc-AAPV-AMC, kinetics in 50 mM Tris pH 7.5, 150 mM NaCl, 0.05% Triton X-100, 0.01% BSA, 25° C.
T1 construct: substrate MeOSuc-AAPV-AMC
T1 sequence (P08246 30-267): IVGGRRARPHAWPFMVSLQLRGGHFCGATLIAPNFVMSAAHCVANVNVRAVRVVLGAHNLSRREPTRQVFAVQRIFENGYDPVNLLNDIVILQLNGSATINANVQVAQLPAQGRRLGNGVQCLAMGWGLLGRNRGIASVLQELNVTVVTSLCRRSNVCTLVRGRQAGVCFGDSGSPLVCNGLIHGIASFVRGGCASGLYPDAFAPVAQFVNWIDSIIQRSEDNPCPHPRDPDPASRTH
Source text: as §1, §2, §3

| Km [1] [µM] | Km [2] [µM] | Structure (SMILES) |
| --- | --- | --- |
| 145 | – | Cc1cc(=O)oc2cc(NC(=O)[C@H](Cc3ccccc3)NC(=O)[C@@H]3CCCN3C(=O)[C@H](C)NC(=O)[C@H](C)NC(=O)CCC(=O)O)ccc12 [Suc-AAPF-AMC, Suc-Ala-Ala-Pro-Phe-AMC] (Suc-AAPF-{AMC}) |
| – | 130 | COC(=O)CCC(=O)N[C@@H](C)C(=O)N[C@@H](C)C(=O)N1CCC[C@H]1C(=O)N[C@H](C(=O)Nc1ccc2c(C)cc(=O)oc2c1)C(C)C [MeOSuc-AAPV-AMC, MeOSuc-Ala-Ala-Pro-Val-AMC] (MeOSuc-AAPV-{AMC}) |

Source: patent US8975370B2, “Inhibitor proteins of a protease and use thereof” (Universite de Lausanne, priority 2003, dated 2015)
